What was measured:
[1] = test system: ICP/BP responses elicited by stimulation of the cavernous nerve; experiment: In vivo erectile function model, intracavernous pressure response to cavernous nerve stimulation; design: species or system rat; settings: 0.1-1 mg/kg i.v.; anesthetized rats
Text: The in vivo model on erectile function is described fully in the scientific literature (Rehman, J., Chenven, E., Brink, P. Peterson, B., Wolcott, B., Wen, Y. P., Melman, A., Christ, G.: Diminished neurogenic but not pharmacological erections in the 2- to 3-month experimentally diabetic F-344 rat. Am. J. Physiol. 272: H1960-H1971, 1997). Briefly, rats (250-600 g) were anesthetized using sodium pentobarbital, the abdomen opened and the cavernous nerve identified. A pressure catheter was placed in the right corpus cavernosum (crus) to measure intracavernous pressure (ICP). A second catheter was introduced into the carotid artery to measure blood pressure. Test compound (0.1, 0.3 and 1 mg/kg i.v.) or vehicle (PEG 400) was given via a catheter placed into the jugular vein.
Control intracavernous pressure responses were elicited by electrically stimulating the cavernous nerve via bipolar stimulating electrodes (20 Hz, 0.22 ms pulse width). Stimulus amplitude (0.2-20 mA) was adjusted to produce a submaximal intracavernous pressure response (typically 0.2 or 0.5 mA). A series of control intracavernous pressure responses were then obtained using a constant stimulus amplitude. Test compound or vehicle was then administered (200 μl i.v bolus) and the cavernous nerve was restimulated to evoke a cavernous pressure response at various times post-drug administration. […]

[2] = test system: cloned mammalian (mSlo or hSlo) BK channels heterologously expressed in Xenopus oocytes; experiment: BK-mediated outward current in Xenopus oocytes, two-electrode voltage clamp; format: cell-based, Xenopus oocyte; settings: at 20 μM; IBTX-sensitive current; at least 5 oocytes
Description: The ability of compounds described in the present invention to open BK channels and increase whole-cell outward (K^+) BK-mediated currents was assessed under voltage-clamp conditions by determining their ability to increase cloned mammalian (mSlo or hSlo) BK-mediated outward current heterologously expressed in Xenopus oocytes [Butler, A., et al., Science, 261: 221-224 (1993); and Dworetzky, S. I., et al., Mol. Brain Res., 27: 189-193 (1994)]. The two BK constructs employed represent nearly structurally identical homologous proteins, and have proven to be pharmacologically identical in our tests. To isolate BK current from native (background, non-BK) current, the specific and potent BK channel-blocking toxin iberiotoxin (IBTX) [Galvez, A., et al., J. Biol. Chem., 265: 11083-11090 (1990)] was employed at a supramaximal concentration (50 nM). The relative contribution of BK channels current to total outward current was determined by subtraction of the current remaining in the presence of IBTX (non-BK current) from the current profiles obtained in all other experimental conditions (control, drug, and wash). […] All compounds were tested in at least 5 oocytes and are reported at the single concentration of 20 μM; the effect of the selected compounds of Formula I on BK current was expressed as the percent of control IBTX-sensitive current and is listed in Table 1. […]

[3] = test system: permanent MCAO focal stroke model; experiment: Permanent focal ischemia, middle cerebral artery occlusion (MCAO) model; format: in vivo, spontaneously hypertensive rat; settings: 0.003 mg/kg i.v. single bolus 2 hours after MCAO; infarct measured 24 hours after MCAO; vs vehicle-treated control
Text: To determine the ability of these compounds to reduce cell loss resulting from neuronal ischemia, a standard rodent model of permanent focal ischemia, involving occlusion of the middle cerebral artery in the spontaneously hypertensive rat (middle cerebral artery occlusion (MCAO) model) was employed [Tamura, A., et al., Journal of Cerebral Blood Flow and Metabolism, Volume 1, 53-60, (1981)]. Selected compounds have been evaluated in the focal stroke model involving permanent MCAO in the spontaneously hypertensive rat. This procedure results in a reliably large neocortical infarct volume that is measured by means of vital dye exclusion in serial slices through the brain 24 hours after MCAO. In the present test, compounds were administered using an intravenous route of administration at 2 hours after occlusion.

O=c1[nH]c2ccc(C(F)(F)F)cc2c(-c2cc(Cl)ccc2O)c1CCO [Example 4, 4-(5-Chloro-2-hydroxyphenyl)-3-(2-hydroxyethyl)-6-(trifluoromethy)-2(1H)-quinolinone]
ICP/BP responses elicited by sub-maximal stimulation of the cavernous nerve [1]: produced an augmentation of the ICP/BP responses
BK Current, percent increase over BK current in controls [2]: ++ (++ = >200%)

COc1ccc(Cl)cc1-c1c(CCO)c(=O)[nH]c2ccc(C(F)(F)F)cc12 [Example 5, 4-(5-Chloro-2-methoxyphenyl)-3-(2-hydroxyethyl)-6-(trifluoromethyl)-2(1H)-quinolinone]
reduction of cortical infarct volume [3]: about 25%
BK Current, percent increase over BK current in controls [2]: ++ (++ = >200%)
melting point: 216 to 217 °C

From patent US6353119B1, “Preparation of 3-substituted-4-arylquinolin-2-one derivatives” (Bristol-Myers Squibb Company, priority 1999, dated 2002)
